Results as given in US9457007B2, “Prenylflavanone compounds for modulating diabetes” (NATUREWISE BIOTECH & MEDICALS CORPORATION, priority 2013, dated 2016).

Tests used:
Assay type in all cases: in vivo
[1] = test system: STZ-induced diabetic mice; test: Feedstuff intake of the diabetic mice; settings: for feedstuff intake: propolins study
Experimental: (§1) The male FBV mice of 5 weeks old, commercially available from BioLASCO Co., Ilan, Taiwan, were acclimatized for 1 week, prior to administration of streptozotocin (STZ) at 40 mg/kg for 3 consecutive days. STZ was formulated with an aqueous solution of sodium citrate (pH 4.5, 73.5 mg/5 mL) on ice, and then 100 μL of the formulation was dosed by intraperitoneal injection. From day 2 in the 3 consecutive days, the mice were dosed with 5% (w/v) glucose water for 6 consecutive days. After allowing the mice to rest for 10 days, blood glucose levels were measured. After administration of STZ for 1 week, about 5 μL of blood was collected from each of the mice at the tail vein, and was assayed for blood glucose by a blood glucose monitor and chip (FORA, California, U.S.A.). After 1 week, blood glucose was detected once more, and whether blood glucose was smooth or not was evaluated prior to grouping. The values of blood glucose in all of the mice induced to suffer from diabetes were brought to fall within about 300±50 mg/dL.
(§2) An appropriate amount of the Taiwan Green Propolis alcohol extract was dissolved with 3 ml 95% alcohol and then uniformly mixed with 80 μL Tween 80 as a cosolvent; after concentrating under reduced pressure for removal of alcohol, it was dispersed into 16 ml water to give a liquid mixture of the Taiwan Green Propolis extract. This mixture was fed by 200 μL gavage into the diabetic mice designated as the Taiwan Green Propolis extract group.
(§3) An appropriate amount of propolins and its relevant derivatives, such as PPA, PPB, PPC, PPD, PPE, PPF, PPG, PPH, PPI or PPJ, was dissolved with 3 ml 95% alcohol and then uniformly mixed with 80 μL Tween 80; after concentrating under reduced pressure for removal of alcohol, it was uniformly dispersed into 16 ml water to give a liquid mixture of propolins. This mixture was fed by 200 μL gavage into the diabetic mice designated as the propolins and its relevant derivative group.
(§4) Sitagliptin (trade name: Januvia), commercially available from American Merck Co., was used as the DPP4 inhibitor. An appropriate amount of sitagliptin was dissolved in water to provide a final concentration allowing administration of the mice at a dose of 370 mg/kg. In the following example, Januvia was representative of the DPP4 inhibitors and acted as a positive control group for reference.
(§5) Tween 80 (80 μL) was mixed into 16 ml water to give a placebo, which was fed by 200 μL gavage into the STZ-induced diabetic mice or normal mice (i.e., the mice without induction for diabetes). Oral gavage was carried out once at a fixed time each day, and weight, feedstuff intake and water intake were measured weekly until tests were finished at 12-13 weeks.

[2] = test system: STZ-induced diabetic mice; test: Water intake of the diabetic mice
Experimental: as §1, §2, §3, §4, §5

[3] = test system: STZ-induced diabetic mice; test: Blood glucose in the STZ-induced diabetic mice; settings: propolins study; after administration for 8 weeks by gavage daily; PPC 9.0, PPD 6.75, PPF 4.5, PPG 4.5, Januvia 370 mg/kg/mouse
Experimental: as §1, with “mg/dL. […]” for “mg/dL.”
as §3, §4, §5

[4] = test system: STZ-induced diabetic mice; test: Oral glucose tolerance test (OGTT); set-up: reduction of AUC compared with the STZ group / extent of reduction of AUC compared with the STZ group: concentration or dose not given beside the values
Experimental: as §1
After administration of the testing substance to the animals for 12 weeks, the OGTT test was performed for evaluation of secretion and effects of insulin. All of the mice in the test were administered with the testing substance and then fasted for 4 hours prior to blood sampling at the first point called point 0. Afterwards, the mice were fed by oral gavage with 200 μL glucose in water, equivalent to a dose of 1.0 g/kg. After administration, blood was collected for an assay of blood glucose at 15, 30, 60, 120 and 180 minutes, respectively. Therefore, a total of 6 points, including points at 0, 15, 30, 60, 120 and 180 minutes, were obtained. About 5 μL of blood was collected from each of the mice at the tail vein and was then assayed for blood glucose by the blood glucose monitor and chip (FORA, California, U.S.A.). The blood glucose values at the Y-axis were plotted against the time points at the X-axis. Each group was calculated for an area under curve for comparison. The efficacy in regulation of blood glucose was evaluated by the area showing a relationship between the testing substance and secretion and effects of insulin.

[5] = test system: STZ-induced diabetic mice; test: Analysis of glycosylated hemoglobin HbA1c; settings: TPE study, TPE 36 mg/kg, DPP4I 370 mg/kg
Experimental: STZ was formulated with an aqueous solution of sodium citrate (pH 4.5, 73.5 mg/5 mL) on ice, and then 100 μL of the formulation was dosed by intraperitoneal injection. […] The glycosylated hemoglobin was used for evaluation of the efficacy of the testing substance in the regulation of blood glucose. […] (New Taipei City, Taiwan) for analysis. The analysis may confer an average and standard deviation to each group of the mice. In the event the presence of the blood glucose modulation efficacy for the testing substance, this value would be lower; and in the event the absence of the blood glucose modulation efficacy for the testing substance, this value would be higher.

## N[C@@H](CC(=O)N1CCn2c(nnc2C(F)(F)F)C1)Cc1cc(F)c(F)cc1F [DPP4I, Sitagliptin, reference compound]
[1]; TPE study, 13 weeks, TPE 36 mg/kg/day, Januvia 370 mg/kg
  effect on food intake: the test results were the same
[1]; at 1 week
  feedstuff intake: 5.5 g/mouse
[1]; at 6 weeks
  feedstuff intake: 6.5 g/mouse
[1]; at 8 weeks
  feedstuff intake: 6.4 g/mouse
[2]; TPE study, after 8 weeks, TPE 36 mg/kg/day, Januvia 370 mg/kg
  water intake: 5.4 mL/day/mouse
[2]; TPE study, after 13 weeks, TPE 36 mg/kg/day, Januvia 370 mg/kg
  water intake: 3.8 mL/day/mouse
[2]; TPE study, first week, TPE 36 mg/kg/day, Januvia 370 mg/kg
  water intake: 7.0 mL/day/mouse
[2]; propolins study, at 1 week
  water intake: 8.0 mL/mouse
[2]; propolins study, at 6 weeks
  water intake: 12.0 mL/mouse
[2]; propolins study, at 8 weeks
  water intake: 12.5 mL/mouse
[3]
  blood glucose: 330 mg/dL
[4]; TPE study, 0 point, glucose 1.0 g/kg oral, TPE 36 mg/kg, Januvia 370 mg/kg
  blood glucose value in glucose tolerance test: about 260 mg/dL
[4]; TPE study, 30-minute time point after glucose in water
  blood glucose value in glucose tolerance test: about 420 mg/dL
[4]; TPE study, 180-minute time point
  blood glucose value in glucose tolerance test: 240 mg/dL
[4]; TPE study, OGTT
  reduction of AUC compared with the STZ group: 66.1%
[4]; TPE study, OGTT 0-180 min, TPE 36 mg/kg, DPP4I 370 mg/kg
  AUC value of blood glucose (integral area): about 5.8×10^4
[4]; propolins study, 0 point, PPC 9.0, PPD 6.75, PPF 4.5, PPG 4.5, DPP4I 370 mg/kg/mouse
  value of blood glucose in glucose tolerance test: about 380 mg/dL
[4]; propolins study, 30-minute time point after glucose in water
  value of blood glucose in glucose tolerance test: about 450 mg/dL
[4]; propolins study, 120-minute time point
  value of blood glucose in glucose tolerance test: about 450 mg/dL
[4]; propolins study, 180-minute time point
  value of blood glucose in glucose tolerance test: 400 mg/dL
[4]; propolins study, OGTT
  AUC value for blood glucose (integral area): about 7.2×10^4
  extent of reduction of AUC compared with the STZ group: 42.0%
[5]; 13 weeks
  reduction of the generation of glycosylated hemoglobin: 55%
[5]; administration for 13 weeks
  value of glycosylated hemoglobin: about 4.6%
